Results taken from patent publication US10703764B2, “Benzopiperazine compositions as BET bromodomain inhibitors” (FORMA Therapeutics, Inc., priority 2013, dated 2020).

How the values were obtained:
[1] = biological target: T1, BRD4 BD1 (Homo sapiens, UniProt O60885); test: AlphaScreen binding assay, BRD4 Bromodomain 1
T1 construct: made in house
How it was run: (§1)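 An AlphaScreen competition format was used with His-BRD4 BD1 or BD2 and biotin-H4 K5/8/12/16-acetyl peptide, each at matched final levels of 50 nM (BD1) or 100 nM (BD2). Incubation in HEPES/NaCl buffer with 0.1% BSA and 0.01% Triton X-100 ran ≥1 h before IC50 determination.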

[2] = biological target: T2, BRD4 BD2 (Homo sapiens, UniProt O60885); test: AlphaScreen binding assay, BRD4 Bromodomain 2
T2 construct: made in house
How it was run: as §1

[3] = test system: MV4-11 cells; test: Oncology cell growth assay (3-day proliferation, CellTiter-Glo); type: cell-based; conditions: Homo sapiens, MV4-11, 72 h, AML cell line MV4-11, 72 hours, compounds grouped by IC50 range, read-out: MV4-11 IC50 (inhibition of proliferation, gIC50)
How it was run: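 Compounds were serially diluted 3-fold in DMSO, giving final well concentrations from 10 down to 0.0045 μM. MV4-11 cells were then seeded at 3000 cells/well in RPMI 1640 with 10% FBS and incubated 72 hours. CellTiter-Glo signal was measured and gIC50 obtained by four-parameter logistic regression.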

Row | Compound | IC50 [1] [nM] | IC50 [2] [nM] | IC50 [3] [nM]
1 | CC(=O)N1c2ccc(-c3ccc(-c4ncc[nH]4)cc3)cc2N(C(=O)c2ccco2)CC1C (stereo not drawn) [Example I-429] | 100 to 1000 | < 50 | 100 to 500
2 | CC(=O)N1c2ccc(-c3nnc(N)s3)cc2N(C(=O)c2ccco2)C[C@@H]1C [Example I-430] | 1000 to 10000 | 50 to 500 | 100 to 500
3 | CC(=O)N1c2ccc(-c3cn(C)nn3)cc2N(C(=O)OC(C)C)C[C@@H]1C [Example I-465] | 100 to 1000 | 50 to 500 | 100 to 500
4 | CC(=O)N1c2ccc(-c3ccc(N4CCS(=O)(=O)CC4)cc3)cc2N(C(=O)OC(C)C)C[C@@H]1C [Example I-467] | 100 to 1000 | 50 to 500 | 100 to 500
5 | CC(C)OC(=O)N1C[C@H](C)N(C(=O)C2CC2)c2ccc(-c3ccc(N4CCS(=O)(=O)CC4)cc3)cc21 [Example I-468] | 100 to 1000 | 50 to 500 | 100 to 500
6 | CC(=O)N1c2ccc(-c3ccc(N4CCCS4(=O)=O)cc3)cc2N(C(=O)OC(C)C)C[C@@H]1C [Example I-469] | 100 to 1000 | 50 to 500 | 100 to 500
7 | CC(=O)N1c2ccc(-c3cnc(N)cn3)cc2N(C(=O)OC(C)C)C[C@@H]1C [Example I-471] | 100 to 1000 | 50 to 500 | 100 to 500
8 | CC(C)OC(=O)N1C[C@H](C)N(C(=O)C2CC2)c2ccc(-c3cnc(N)cn3)cc21 [Example I-472] | 100 to 1000 | > 500 | > 500
9 | CC(=O)N1c2ccc(-c3ccc(CS(N)(=O)=O)cc3)cc2N(C(=O)OC(C)C)C[C@@H]1C [Example I-475] | 100 to 1000 | 50 to 500 | 100 to 500
10 | CC(=O)N1c2ccc(-c3ccc(S(=O)(=O)CCN)cc3)cc2N(C(=O)OC(C)C)C[C@@H]1C [Example I-477] | 100 to 1000 | < 50 | 100 to 500
11 | CC(=O)N1c2ccc(-c3ccc(S(=O)(=O)CCO)cc3)cc2N(C(=O)OC(C)C)C[C@@H]1C [Example I-478] | 100 to 1000 | 50 to 500 | 100 to 500
12 | CC(C)OC(=O)N1C[C@H](C)N(C(=O)C2CC2)c2ccc(-c3cn(C)nn3)cc21 [Example I-482] | 100 to 1000 | > 500 | > 500
13 | COC(=O)N1c2ccc(-c3ccc(N4CCS(=O)(=O)CC4)cc3)cc2N(C(=O)OC(C)C)C[C@@H]1C [Example I-483] | 100 to 1000 | 50 to 500 | > 500
14 | COC(=O)N1c2ccc(-c3cnc(N)cn3)cc2N(C(=O)OC(C)C)C[C@@H]1C [Example I-485] | 100 to 1000 | 50 to 500 | > 500
15 | COC(=O)N1c2ccc(-c3cn(C)nn3)cc2N(C(=O)OC(C)C)C[C@@H]1C [Example I-490] | 100 to 1000 | 50 to 500 | > 500
16 | CCC(C)OC(=O)N1C[C@H](C)N(C(C)=O)c2ccc(-c3ccc(S(C)(=O)=O)cc3)cc21 (stereo partly drawn) [Example I-494] | 100 to 1000 | 50 to 500 | 100 to 500
17 | CC(=O)N1c2ccc(-c3cnn(C4CC4)c3)cc2N(C(=O)Oc2ccc(F)cc2F)C[C@@H]1C [Example I-499] | 100 to 1000 | 50 to 500 | 100 to 500
18 | COc1cccc(OC(=O)N2C[C@H](C)N(C(C)=O)c3ccc(-c4cnn(C5CC5)c4)cc32)c1 [Example I-500] | 100 to 1000 | 50 to 500 | 100 to 500

Other lines, results leading:

Row | IC50 [1] [nM] | IC50 [2] [nM] | IC50 [3] [nM] | Compound
19 | 100 to 1000 | < 50 | 100 to 500 | CC(=O)N1c2ccc(-c3ccc(N4CCS(=O)(=O)CC4)cc3)cc2N(C(=O)C2CC2)C[C@@H]1C [Example I-435]
20 | 100 to 1000 | 50 to 500 | 100 to 500 | C[C@H]1CN(C(=O)C2CC2)c2cc(-c3ccc(N4CCS(=O)(=O)CC4)cc3)ccc2N1C(=O)C1CC1 [Example I-436]
21 | 100 to 1000 | 50 to 500 | 100 to 500 | CC(=O)N1c2ccc(-c3ccc(C(=O)N4CCNCC4)cc3)cc2N(C(=O)C2CC2)C[C@@H]1C [Example I-437]
22 | 100 to 1000 | 50 to 500 | 100 to 500 | C[C@H]1CN(C(=O)C2CC2)c2cc(-c3ccc(C(=O)N4CCNCC4)cc3)ccc2N1C(=O)C1CC1 [Example I-438]
23 | 100 to 1000 | 50 to 500 | 100 to 500 | CC(=O)N1c2ccc(-c3ccc(N4CCCS4(=O)=O)cc3)cc2N(C(=O)C2CC2)C[C@@H]1C [Example I-439]
24 | 100 to 1000 | < 50 | 100 to 500 | CC(=O)N1c2ccc(-c3ccc(C4(O)COC4)cc3)cc2N(C(=O)C2CC2)C[C@@H]1C [Example I-443]
25 | 100 to 1000 | 50 to 500 | 100 to 500 | CC(=O)N1c2ccc(-c3ccc(CS(N)(=O)=O)cc3)cc2N(C(=O)C2CC2)C[C@@H]1C [Example I-445]
26 | 1000 to 10000 | 50 to 500 | > 500 | CC(=O)N1c2ccc(-c3ccc(S(=O)(=O)CCN)cc3)cc2N(C(=O)C2CC2)C[C@@H]1C [Example I-447]
27 | 100 to 1000 | 50 to 500 | > 500 | CC(=O)N1c2ccc(-c3ccc(S(=O)(=O)CCO)cc3)cc2N(C(=O)C2CC2)C[C@@H]1C [Example I-449]
28 | 100 to 1000 | 50 to 500 | 100 to 500 | COC(=O)N1c2ccc(-c3ccc(N4CCS(=O)(=O)CC4)cc3)cc2N(C(=O)C2CC2)C[C@@H]1C [Example I-455]
29 | 100 to 1000 | 50 to 500 | 100 to 500 | COC(=O)N1c2ccc(-c3ccc(C(=O)N4CCNCC4)cc3)cc2N(C(=O)C2CC2)C[C@@H]1C [Example I-456]
30 | 100 to 1000 | > 500 | > 500 | CC(C)OC(=O)N1C[C@H](C)N(C(=O)C2CC2)c2ccc(-c3ccc(N4CCCS4(=O)=O)cc3)cc21 [Example I-470]
31 | 100 to 1000 | 50 to 500 | 100 to 500 | CC(=O)N1c2ccc(-c3ccc(C4(O)COC4)cc3)cc2N(C(=O)OC(C)C)C[C@@H]1C [Example I-473]
32 | 100 to 1000 | 50 to 500 | > 500 | CC(C)OC(=O)N1C[C@H](C)N(C(=O)C2CC2)c2ccc(-c3ccc(C4(O)COC4)cc3)cc21 [Example I-474]
33 | 100 to 1000 | > 500 | > 500 | CC(C)OC(=O)N1C[C@H](C)N(C(=O)C2CC2)c2ccc(-c3ccc(CS(N)(=O)=O)cc3)cc21 [Example I-476]
34 | 100 to 1000 | > 500 | > 500 | CC(C)OC(=O)N1C[C@H](C)N(C(=O)C2CC2)c2ccc(-c3ccc(S(=O)(=O)CCO)cc3)cc21 [Example I-479]
35 | 100 to 1000 | 50 to 500 | 100 to 500 | CC(=O)N1c2ccc(-c3ccc(S(C)(=O)=O)cc3)cc2N(C(=O)OC2CCC2)C[C@@H]1C [Example I-493]
36 | 100 to 1000 | > 500 | 100 to 500 | CC(=O)N1c2ccc(-c3ccc(S(C)(=O)=O)cc3)cc2N(C(=O)OCC2CC2)C[C@@H]1C [Example I-495]
37 | 100 to 1000 | 50 to 500 | 100 to 500 | CC(=O)N1c2ccc(-c3ccc(S(C)(=O)=O)cc3)cc2N(C(=O)OC2CCOCC2)C[C@@H]1C [Example I-496]
38 | 100 to 1000 | 50 to 500 | 100 to 500 | CC(=O)N1c2ccc(-c3ccc(C(=O)N4CCNCC4)cc3)cc2N(C(=O)OC2CCOCC2)C[C@@H]1C [Example I-498]
